# Experimental data taken from a melting point compilation (Tetko et al.; mined from patent text by program, amines drawn as free bases though some values may be those of a salt).
row,SMILES,melting point [°C]
1,COc1cc2c(c3c1OC(C)(C)C3)C(c1ccc(-c3ccc(NC(C)=O)cc3)cc1)=NC(C)(C)C2,128 to 132
2,COc1cc2c(c(O)c1C)COC(C)C2 (centres undefined),143 to 145
3,C=CCOc1ccc2c(c1)CCNC2=O,105 to 107
4,COc1cc(S(C)(=O)=O)ccc1-c1nc2cnccc2[nH]1,234 to 235
5,CCCc1nc2c(N)nc3cc(OCCCNS(C)(=O)=O)ccc3c2s1,168 to 171
6,CN(CC(=O)O)C(=O)C(=O)c1cn(Cc2ccccc2)c2ccc(-c3cccc(OC(F)(F)F)c3)cc12,178 to 179
7,Cc1csc(N)c1S(=O)(=O)NC(=S)NC(C)C,118 to 120
8,OC1CCCCC1n1c(Br)nc2cc(Cl)c(Cl)cc21 (centres undefined),186 to 188
9,O=C(O)c1ccc(F)c(F)c1Nc1ccc(I)cc1F,199 to 201
10,O=C1OCCC12Sc1cc(Cl)ccc1C2=O (centres undefined),157 to 158
11,CCOC(=O)c1c(N)sc2c1CN(C(=O)OCC)C2,154 to 156
12,Cc1nnc(-c2ccc3occ(-c4ccc(S(C)=O)c(C)c4)c3c2)o1 (centres undefined),195 to 196
13,O=C(O)c1cc2c(C(F)(F)F)cccc2s1,178 to 179
14,CCCOc1cc(-c2cc3c(=O)[nH]c(C)nc3cc2C(C)C)ccc1Cl,236
15,Brc1cc2c(cn1)[nH]c1ccccc12,300
16,COC(=O)c1ccc(Cl)cc1N(C)S(C)(=O)=O,73 to 75
17,CCCCn1c(=O)c2cn(S(C)(=O)=O)nc2n(CCCC)c1=O,103 to 104
18,CC(=Cc1ccc(O)c(Cl)c1)[N+](=O)[O-],91 to 93
19,OC1CSC(Oc2cccc3ocnc23)C(O)C1O (centres undefined),172
20,CCNS(=O)(=O)c1cc(C)c2cc(C(C)C)ccc(C)c1-2,96 to 98
21,CC(C)COc1ccc(-n2ncc(C(=O)O)c2Cl)cc1C#N,216 to 218
22,COC(=O)C#CC(=O)c1ccccc1C,43 to 45
23,COC(C)(OC)c1ccc(C2(O)CCC(C)(C)CC2)cc1,88
24,COC(=O)C(C)(C)OCc1oc(-c2ccc(Cl)cc2)nc1C,88 to 90
25,Cc1cc(Cc2ccc(Cl)cc2)n(O)c(=O)c1,142
26,CC(C)c1ccc(C(=O)C2=C(O)C(=O)N(c3ncc(S(=O)(=O)c4ccc([N+](=O)[O-])cc4)s3)C2c2ccc(C(F)(F)F)cc2)cc1 (centres undefined),300 to 302

row,SMILES,melting point [°C]
1,O=c1n(-c2ccc(Cl)cc2)c(=O)n(SC(Cl)(Cl)Cl)n1SC(Cl)(Cl)Cl,169
2,N#CC(C(=O)C(=O)C(C#N)c1ccc(Cl)cc1)c1ccc(Cl)cc1 (centres undefined),255
3,CCCCCCS(=O)(=O)c1nn2c(=O)c([N+](=O)[O-])c(OC)nc2s1,150 to 152
4,Nc1ccc(-c2noc(-c3cnn4c(C(F)F)cc(-c5ccc(C(F)(F)F)c(OCC(F)(F)F)c5)nc34)n2)cn1,285
5,CC(C)(C)OC(=O)N1C[C@@H](F)C[C@H]1C(=O)O,158 to 159
6,CCOC(=O)C(C#N)=Cc1cc([N+](=O)[O-])ccc1Cl,83 to 85
7,CCc1cn(C2CC(O)C(CNC)O2)c(=O)[nH]c1=O (centres undefined),145 to 147
8,CCC1(CC(=O)O)OCC(=O)c2c1[nH]c1cccc(Cl)c21 (centres undefined),240 to 243
9,CCN(c1ccc(Cl)cc1[N+](=O)[O-])S(=O)(=O)c1ccc(C#N)cc1,146 to 148
10,COc1ccc(OCC2(Cc3c(C)[nH]c(=O)c(C(C)C)c3O)CC2)cc1,222 to 223
11,COc1ccc(F)cc1C(=O)NC1COc2cc(OC)c(S(=O)(=O)NC(=S)NC(C)C)cc2C1 (centres undefined),179 to 180
12,N#Cc1ccc2c(c1)CCC=C2c1cncs1,78 to 79
13,CCCOc1c(C(=O)OCC)oc2ccc([N+](=O)[O-])cc12,107
14,Clc1ccc2scc(-c3ccncc3)c2c1,90 to 91
15,O=[N+]([O-])c1cc(-c2nsc(C(F)(F)F)c2Cl)c(Cl)cc1Cl,104 to 106
16,CCC1(CC)Oc2ccc(C#N)cc2[C@@H](OC2=CC(=O)CC2)[C@@H]1O (relative stereo),166 to 170
17,CC(=O)OCc1c(S(C)(=O)=O)ccc(C(=O)O)c1Cl,219 to 223
18,CCCCCCCCCCCCCCCCOc1ccc(-c2nc(CC(=O)OCC)c(OCC)o2)cc1,44 to 45
19,Cc1cc(O)nc(C=Cc2ccccc2)n1,217 to 219
20,CCCC(O)c1cc(C(=O)OC)c(NC(C)=O)cc1C(F)(F)F (centres undefined),97 to 101
21,C(=Cc1ccc(-c2nnn[nH]2)cc1)c1ccc(OCc2ccc3ccccc3n2)cc1,241 to 243
22,O=C1CN(C(=O)C(Cl)Cl)N(Cc2ccc(Cl)c(Cl)c2)C(=O)N1,196
23,Cc1nc2c(Cl)cc(F)c(-n3c(=O)cc(C(F)(F)F)n(C)c3=O)c2s1,83 to 85
24,CC(C)(C)OC(=O)NCCNc1nnc(N)s1,219 to 220
25,O=Cc1ccn(C2=CC3=C(CC2)CCc2[nH]c(=O)c(=O)n(CC(=O)O)c23)c1,> 250
26,N#Cc1c(Cl)cc(Cn2nnc(C(N)=O)c2N)cc1Cl,238 to 240

# More lines, now with the values ahead:
row,melting point [°C],SMILES
1,55 to 61,CCCCC(C#N)(Cn1ccnc1)c1ccc(S(=O)c2ccccc2)cc1 (centres undefined)
2,168,COC(=O)CCc1sc(NC(=O)C[C@H]2O[C@H](c3cccc(OC)c3OC)c3cc(Cl)ccc3N(CC(C)(C)COC(C)=O)C2=O)nc1-c1ccccc1
3,145 to 147,CCCCCS(=O)(=O)NC(=O)CCc1cc(-c2ccccc2)nn1Cc1ccc(Cl)cc1Cl
4,123 to 127,CN1CCC(c2c[nH]c3ccc(NC(=O)c4ccsc4)nc23)CC1
5,214,O=C(O)/C=C/c1ccc(C(=O)NC2CCCCC2)cc1
6,73 to 79,COc1cc(C2CCN(CC(O)CF)CC2)ccc1Nc1ncc2ccc(-c3ccccc3OC)n2n1 (centres undefined)
7,232 to 234,Cc1c(CC(=O)O)c2cc(OCc3ccc4ccccc4n3)ccc2n1Cc1ccc(C(=O)O)cc1
8,140 to 141,CN1CCN(c2cccc3ccc(NCc4cccc5ccccc45)cc23)CC1
9,106 to 108,CC(C)(C)C(=O)Oc1ccccc1C(=O)c1ccccc1OC(=O)C(C)(C)C
10,85 to 87,CCOC(=O)[C@H](Cc1ccc([N+](=O)[O-])cc1I)NC(=O)OCc1ccccc1
11,131 to 133,CC12CCC(C1)C1(C)Oc3ccc(C(=O)Oc4ccc(C(=O)OCc5ccccc5)cc4)cc3C21C (centres undefined)
12,140,COc1ccc(OCc2cccc(C(=O)O)c2)cc1Cc1cnc(N)nc1N
13,252 to 255,Cn1c2cc(C(O)CO)ccc2c2c3c(c(-c4ccccc4Cl)cc21)C(=O)NC3=O (centres undefined)
14,117 to 119,COC(=O)CCCc1ccc(OCCN(C)c2nc3ccccc3o2)cc1
15,160,O=C1c2ccccc2C(=O)N1C(=O)c1cc(Oc2ccc(C(F)(F)F)cc2Cl)ccc1[N+](=O)[O-]
16,170 to 171,CC1=C(Cc2ccc(-c3ccc(N(C)C)cc3)cc2)C(=O)c2ccccc2C1=O
17,254 to 257,CCOC(=O)c1cn(NC=O)c2cc(-n3cccc3)c(F)cc2c1=O
18,190 to 191,O=C(O)c1cn(-c2cccc(OC(F)F)c2)cn1
19,141 to 143,CCOC(=N)c1ccc(-c2nc3c(s2)NCCCC3)cc1
20,78,CCN(CC)C(=O)c1cc(-c2ccccc2)c2sccc2c1
21,67.7 to 68.5,CC(C)(C)OC(=O)CCOCCc1cccc(-c2nc(=O)c3ccccc3s2)n1
22,142 to 144,CCCn1nc(C(F)(F)CC)nc1Cc1ccc(-c2ccccc2-c2nnn[nH]2)nc1
23,176 to 183,N#Cc1c(N2CCN(C(=O)c3c[nH]cn3)CC2)c2ccccc2n(Cc2ccc(F)cc2)c1=O
24,175,Cc1cccc(NC(=O)NCC(=O)N(Cc2ccccc2)c2ccccc2)c1

row,melting point [°C],SMILES
1,129 to 130,CCc1ccc(C(O)COc2ccc(CC3SC(=O)NC3=O)cc2)nc1 (centres undefined)
2,84 to 86,CC1(C)CC(=O)c2ccc(OCCn3ccnc3)cc2O1
3,180 to 183,CCCCOc1cc(C(=O)O)cc(NC=O)c1C(=O)c1ccccc1
4,275,CCCC(=O)Nc1ccc2c(c1)C(=O)c1cc(NC(=O)CCC)ccc1C2=O
5,120 to 122,O=C(c1cccc(OCCCN2C(=O)c3ccccc3C2=O)c1)N1CCCCC1
6,118,O=c1c2ccccc2c(-c2ccccc2)cn1CCCN1CCCCC1
7,171 to 172,COC(=O)C1=NN(c2ccccc2)C(C(=O)OC)=NN1c1ccccc1
8,64 to 65,CC(=O)Oc1ccc(C[C@H]2CCc3ccccc3O2)cc1
9,> 250,CC1CC(=O)NN=C1c1ccc(-c2ccc(=O)[nH]n2)cc1 (centres undefined)
10,253,Cn1nccc1C(=O)Nc1cc(Oc2ccc3nc(NC(=O)C4CC4)cn3n2)ccc1F
11,107 to 108,O=C1CCCN1C(=O)Oc1ccc(Br)cc1
12,148 to 151,CCOC(=O)Nc1cc2c(c(N)n1)N=C(c1ccccc1)[C@@H](C)N2
13,189 to 190,CC(C)Cn1c(=O)[nH]c(=O)c2cc(Cc3cccc4ccccc34)sc21
14,110 to 112,Cc1nc(N2CCN(Cc3ccc4nonc4c3)C2=O)sc1C(=O)NCc1cccnc1
15,159 to 161,CCOC(=O)c1cncc(C(=O)NC(C)c2ccccc2)c1 (centres undefined)
16,205 to 210,COc1cc([N+](=O)[O-])ccc1S(=O)(=O)N1C(=O)C(NC(C)=O)(c2ccccc2Cl)c2cc(Cl)ccc21 (centres undefined)
17,153 to 154,O=C(NC(Cc1ccccc1)c1ccccn1)c1ccccc1 (centres undefined)
18,100 to 102,OC(CCN1CCN(c2ccccc2)CC1)COc1ccccc1Cl (centres undefined)
19,167,O=C1Nc2cccnc2N(C(=O)NCCN2CCCCC2CN2CCOCC2)c2ccccc21 (centres undefined)
20,116 to 117,CC1CCC(Nc2nccc(Oc3ccc(NC(=O)c4cc(F)cc(N5CCOCC5)c4)c4ccccc34)n2)CC1 (centres undefined)
21,76.7,N#CC(N)COc1ccc(Oc2ccccc2)cc1 (centres undefined)
22,132 to 133,Cn1c(Cl)cc(=O)n(C2CCCCC2)c1=O
23,168 to 169,COC(=O)c1ccccc1NC(=O)CN1CCN(C(=O)c2ccc(OC)cc2)CC1
